Results from a melting point compilation (Tetko et al.; mined from patent text by program, amines drawn as free bases though some values may be those of a salt).

| SMILES | melting point |
| --- | --- |
| COC(=O)c1cccc2[nH]c3cc4c(c(OC)c3c12)CCCC4 | 194 to 196 °C |
| C=CCC(O)(C(=O)N[C@H]1CN2CCC1CC2)c1cccs1 (some centres undefined) | 54.4 to 58.3 °C |
| CCOC(=O)Nc1nc(-c2ccccc2)c(-c2nc3ccccc3c(=O)n2-c2ccc(C)cc2)s1 | > 275 °C |
| CCCCCCCCOc1cc2cc(C(=O)OC)c(C(=O)OC)c(-c3ccncc3)c2cc1OC | 124 to 126 °C |
| C=CCON=C(CC)C1=C(O)CC(c2c(C)c(C)c3c(c2C)CC(C)(CC)C3)CC1=O (centres undefined) | 64 to 65 °C |
| COc1cc([N+](=O)[O-])c2nccc(C)c2c1OC | 123 to 125 °C |
| Cc1oc(-c2ccccc2)nc1COc1ccc(Cn2cc(C(=O)O)c(-c3ccccc3)n2)cc1 | 165 to 166 °C |
| Cc1c(CO)oc2c(Br)cccc12 | 103 °C |
| CC(C)(C)OC(=O)CCC1CCC(N)CC1 (centres undefined) | 39 to 40 °C |
| COc1cc(Br)c(C(=O)c2ccccc2)cc1OC | 71 to 72 °C |
| CC(=O)Cc1ccc(SCCCBr)cc1 | 40 to 41 °C |
| CN(C)CCN(C)c1ccc(Nc2cc(-c3cc(F)cc(N4CCc5c(sc6c5CCCC6)C4=O)c3CO)cn(C)c2=O)nc1 | 122 to 123 °C |
| O=c1[nH]c2c(n(O)c1=O)C1=C(CCC(n3ccc(CN4CCN(Cc5ccccc5)CC4)c3)=C1)CC2 | > 200 °C |
| O=[N+]([O-])c1cccc2c1c([N+](=O)[O-])cc1nc(O)c(O)nc12 | > 300 °C |
| C1=NC=C2CCNC=C12 | 182 to 190 °C |
| Nc1ncc(-c2noc(-c3cnn4c(C(F)(F)F)cc(-c5ccc(Cl)cc5)nc34)n2)cn1 | 268 °C |
| CC1Cc2ccc(Cl)cc2C(c2ccc([N+](=O)[O-])cc2)=NN1 (centres undefined) | 132 to 135 °C |
| CSc1nc(P(=O)(C2CCCCC2)C2CCCCC2)cc(P(=O)(C2CCCCC2)C2CCCCC2)n1 | 197 to 198 °C |
| COc1cc(CNC(=O)c2nc3cn(CCCc4ccccc4)nc3c(=O)[nH]2)ccc1F | 137 to 140 °C |
| Nc1cc2c(Nc3ccc(Cl)c(Br)c3)ncnc2cn1 | 271 to 274 °C |
| NC(=O)NCc1ccc(-c2ccc3oc([N+](=O)[O-])c(-c4ccccc4)c3c2)cc1 | 215 to 216 °C |
| OC1CSC(Oc2ccccc2-c2nc3ccccc3s2)C(O)C1O (centres undefined) | 196 °C |
| Cc1ccc2cccc(OCc3c(Cl)ccc(S(=O)(=O)N4CCCC4C(=O)NCc4ccccc4)c3Cl)c2n1 (centres undefined) | 143 °C |

| SMILES | melting point |
| --- | --- |
| COc1cc2[nH]cc(C(=O)Nc3cccnc3)c2cc1Br | > 250 °C |
| O=C(CCCCl)Nc1ccnn1-c1c(Cl)cc(C(F)(F)F)cc1Cl | 103 to 104 °C |
| CCCCOP(=O)(CCCC1(c2ccccn2)c2ccccc2-c2ccccc21)OCCCC | 126 to 128 °C |
| CN(Cc1ccccc1)C(=O)C[C@@H](Cc1ccccc1)C(=O)O | 119 to 121 °C |
| COc1ccc(/C=C/c2ccc(Cl)cc2[N+](=O)[O-])c([N+](=O)[O-])c1 | 202 °C |
| Cc1nc(NCCc2ccc(OCc3nn[nH]n3)cc2)c2cc(C)sc2n1 | 205 °C |
| CC(C)C(=O)CC(=O)c1ccc(C(=O)c2ccccc2)cc1 | 76.5 to 78 °C |
| CCCCc1nn(-c2cc([N+](=O)[O-])ccc2Cl)c(C(N)=O)c1Cc1ccc(Br)cc1F | 145 to 147 °C |
| CC(C)(C)CCCOC1CCC2C3C(=O)C=C4CC(O)CCC4(C)C3CCC12C (centres undefined) | 203 to 205 °C |
| CC(C)n1nc(-c2cc(C(=O)NCCN3CCOCC3)cnc2-c2ccccc2)ccc1=O | 162 to 163 °C |
| CCOC(=O)c1ccc(OCCCCCCc2cccc(OCc3ccccc3)c2OCc2ccccc2)cc1 | 63 to 65 °C |
| O=C(CNC(=O)C(Cc1ccc(OCc2ccccc2)cc1)NC(=O)OCc1ccccc1)Nc1n[nH]c(=S)s1 (centres undefined) | 201 to 202 °C |
| CCOc1ccccc1OCC(O)CNC(C)=CC(=O)c1ccc(C)nc1 (single isomer, unassigned; (-)) | 108 to 109 °C |
| O=C(CCCCC(=O)Oc1cc(O)cc(O)c1)Oc1cc(O)cc(O)c1 | 251 to 255 °C |
| COc1cc(CNC(c2ccccc2)c2ccccc2)ccc1O | 115 to 118 °C |
| CC12CCC(C1)C(C)(C)C2(S)CCO (centres undefined) | 55 to 60 °C |
| Cn1c([N+](=O)[O-])cnc1COc1ccc([N+](=O)[O-])cc1C(F)(F)F | 153 °C |
| COC(=O)c1nsnc1N | 142 to 143 °C |
| CCCCCc1c(C(C)C)nc(C(C)C)c(CO)c1-c1ccc(C(C)C)cc1 | 42 to 44 °C |
| c1ccc(COc2ccc(-c3nc4cccc(OCc5ccccc5)c4[nH]3)cc2C23CC4CC(CC(C4)C2)C3)cc1 | 109 to 111 °C |
| CCN1CCN(C(=O)c2ccc(-c3cc(-c4c(-c5cccc(C)n5)nc5c(C)cccn45)ccn3)cc2)CC1 | 212 °C |
| Cc1nc2c3c(ccn2c1C)[C@@](C)(O)[C@H](O)[C@@H](c1ccccc1)N3 | 137 to 138 °C |
| Nc1nc(-n2cc(C(=O)O)c(=O)c3cc(F)c(N4CC(O)C4)c(Cl)c32)c(F)cc1F | 235 to 238 °C |

| SMILES | melting point |
| --- | --- |
| O=Cc1cnccc1Cl | 53 to 54 °C |
| COc1cc(OC)cc(N2CCN(C(=O)N(C)c3nc(C)c(C)nc3OC)CC2)c1 | 80 to 82 °C |
| CCCCCN1C(=O)C2(COc3cc4c(cc32)OCO4)c2c(C(=O)Nc3cccc(OC)c3)cccc21 (centres undefined) | 173 to 175 °C |
| Cc1ccccc1C(F)(F)C(F)(F)c1ccccc1C | 71.5 to 73.5 °C |
| CCOC(=O)c1cc(=O)c(Cl)c(-c2ccccc2)o1 | 103 to 105 °C |
| COc1cc2ccn3c(=O)c(C(=O)O)cnc3c2cc1OC | 298 to 301 °C |
| CCCCNC(=O)C(c1ccccc1)c1ccccc1 | 96 °C |
| O=C(O)COc1ccc([C@H]2c3ccc(O)cc3OC[C@H]2c2ccccc2)cc1 (racemic) | 178 °C |
| O=C(CCN1CCCC1)Nc1ccc2c(=O)c3ccc(NC(=O)CCN4CCCC4)cc3[nH]c2c1 | > 320 °C |
| CC(C)C(=O)NC(c1ccc(C=O)cc1)C(F)(F)F (centres undefined) | 132 to 133 °C |
| COc1ccc2[nH]cc(C3=C(c4cc(OC)c(OC)c(OC)c4)C(=O)NC3=O)c2c1 | 268 °C |
| N#Cc1ccc2[nH]cc(C3CCC4(CC3)OCCO4)c2c1 | 153 to 155 °C |
| Nc1ccc(OCc2ccc(Cl)cc2)cc1F | 73 to 75 °C |
| CC(C)CCOc1ccc(Cl)c2c(=O)c3ccccc3sc12 | 96 to 97 °C |
| CC(CNS(=O)(=O)C(C)C)c1ccc(NC(=O)CCl)cc1 (centres undefined) | 138 °C |
| O=C(c1ccc(-n2cccn2)cc1)N1Cc2cccn2Cc2ccccc21 | 179 to 181 °C |
| CC(C)NC(=S)Nc1ccc(Cl)c(-c2ccnc3c(C(=O)c4cccs4)cnn23)c1 | 194 to 195 °C |
| COn1cnc2c(N)nc3ccccc3c21 | 238 to 240 °C |
| COC(=O)CC(Cc1c[nH]c2ccccc12)(NC(=O)OC1C2CC3CC(C2)CC1C3)C(=O)O (centres undefined) | 108 to 109 °C |
| COC1=CC(=O)OC1=C(COC(C)=O)C(C)C(C)=O (centres undefined) | 54 to 56 °C |
| Cc1nc2c3c(c(C(=O)NCCCO)cc2n1C)CCC1(Cc2ccccc2C1)N3 | 237 to 238 °C |
| C=CCn1cc(-c2ccccc2)c(=O)c(-c2cccc(C(F)(F)F)c2)c1 | 107 to 109 °C |
| O=C(Nc1nc(C(Cl)(Cl)Cl)ns1)c1ccccc1Cl | 142 °C |
